Measured values: patent US4428936A, “Antibacterial composition for medical use” (Toyama Chemical Co., Ltd., priority 1978, dated 1984)

Experiments:
Escherichia coli TK-3 [1] = experiment: Growth-inhibition test on clinically isolated strain (agar, about 10^8 cells/ml); assay type: cell-based; parameters: key: (+) means that the test bacterium grew; (-) means that the test bacterium did not grow; conditions: T-1551 Na 0 μg/ml; Methicillin sodium alone by line b32-b40: 3200,1600,800,400,200,100,50,25,12.5 μg/ml; 18 hours, 37° C
Procedure: (§1) Heart Infusion agar containing a prescribed amount of Methicillin sodium or T-1551 Na was inoculated with the test bacterium at a rate of about 10^8 cells/ml. After incubation for 18 hours at 37° C., the growth of the test bacterium was inspected.

[2] = test system: Klebsiella pneumoniae Y-4; experiment: as above; assay type: cell-based; parameters: key: (+) means that the test bacterium grew; (-) means that the test bacterium did not grow; conditions: T-1551 Na 0 μg/ml; Methicillin sodium alone by line b62-b70: 3200,1600,800,400,200,100,50,25,12.5 μg/ml; 18 hours, 37° C
Procedure: as §1

[3] = test system: Pseudomonas aeruginosa S-111; experiment: as above; assay type: cell-based; parameters: key: (+) means that the test bacterium grew; (-) means that the test bacterium did not grow; conditions: T-1551 Na 0 μg/ml; Methicillin sodium alone by line b92-b100: 3200,1600,800,400,200,100,50,25,12.5 μg/ml; 18 hours, 37° C
Procedure: as §1

Escherichia coli TK-3 [4] = experiment: Minimum inhibitory concentration; assay type: cell-based; conditions: TK3; Escherichia coli TK-3 strain
Procedure: (§2) The minimum inhibitory concentration of T-1551 Na or Methicillin sodium against Escherichia coli TK-3 strain or Kleosiella pneumoniae Y-4 strain was greater than 800 μg/ml in each case.

[5] = test system: Klebsiella pneumoniae Y-4; experiment: Minimum inhibitory concentration; assay type: cell-based; conditions: Y4; Klebsiella pneumoniae Y-4 strain
Procedure: as §2

K. pneumoniae Y-4 = experiment: Effect of combined use on experimental infection in mice (protection); assay type: in vivo, mice (ICR strain) infected with K. pneumoniae; conditions: challenge dose 5.7 × 10^7 cells/mouse, peritoneal; subcutaneous administration one and two hours after inoculation
Excerpt: (§3) Male mice (5 mice per group) of the ICR strain, 4 weeks of age, were peritoneally inoculated with the prescribed number of pathogenic bacteria suspended in 5% mucin. After one hour and two hours following the inoculation, test preparations shown in Table 5 were subcuataneously administered to examine the protection effect.

K. pneumoniae Y-53 = experiment: as above; assay type: in vivo, mice (ICR strain) infected with K. pneumoniae; conditions: challenge dose 1.0 × 10^7 cells/mouse, peritoneal; subcutaneous administration one and two hours after inoculation
Excerpt: as §3

Escherichia coli GN 6299 = experiment: Growth-inhibition test with potassium clavulanate; assay type: cell-based; parameters: key: (+) means that the test bacterium grew; (-) means that the test bacterium did not grow; conditions: T-1551 Na 0 μg/ml; potassium clavulanate alone by line b171,b173-b181: 100,(unlabelled),25,(unlabelled),6.25,(unlabelled),1.6,(unlabelled),0.4,(unlabelled) μg/ml
Procedure: as §1
(§4) The same operation as in Test Example 1 was repeated, except that the Methicillin sodium was replaced by potassium clavulanate and the test bacteria were replaced by those shown in Tables 6, 7 and 8, to obtain the results shown in Tables 6, 7 and 8.

[6] = test system: Klebsiella pneumoniae GN 69; experiment: Growth-inhibition test with potassium clavulanate; assay type: cell-based; parameters: key: (+) means that the test bacterium grew; (-) means that the test bacterium did not grow; conditions: T-1551 Na 0 μg/ml; potassium clavulanate alone by line b195,b197-b205: 100,(unlabelled),25,(unlabelled),6.25,(unlabelled),1.6,(unlabelled),0.4,(unlabelled) μg/ml
Procedure: as §1, §4

[7] = test system: Pseudomonas aeruginosa GN 3345; experiment: Growth-inhibition test with potassium clavulanate; assay type: cell-based; parameters: key: (+) means that the test bacterium grew; (-) means that the test bacterium did not grow; conditions: T-1551 Na 0 μg/ml; potassium clavulanate alone by line b219-b228: 100,(unlabelled),25,(unlabelled),12.5,(unlabelled),3.1,(unlabelled),0.4,(unlabelled) μg/ml
Procedure: as §1, §4

Compound	growth of the test bacterium (Escherichia coli TK-3 [1])	growth of the test bacterium [2]	growth of the test bacterium [3]	MIC (Escherichia coli TK-3 [4]) [µg/mL]	MIC [5] [µg/mL]	ED50 (protection effect) (K. pneumoniae Y-4) [mg/mouse]	ED50 (protection effect) (K. pneumoniae Y-53) [mg/mouse]	growth of the test bacterium (Escherichia coli GN 6299)	growth of the test bacterium [6]	growth of the test bacterium [7]
COc1cccc(OC)c1C(=O)N[C@@H]1C(=O)N2[C@@H]1SC(C)(C)[C@@H]2C(=O)O [Methicillin sodium, reference compound]	+	+	+	> 800	> 800	> 50	> 46.6			
O=C(O)[C@H]1/C(=C/CO)O[C@@H]2CC(=O)N21 [Potassium clavulanate, potassium clavulanate, reference compound]								- and +	- and +	+
